Laboratory results reported in patent US20130164249A1, “COMPOSITIONS AND METHODS FOR INHIBITING VIRAL AND BACTERIAL ACTIVITY” (priority 2007, published 2013).

How the values were obtained:
[1] = SPR reference surface (nonfunctionalized dextran); type: binding; details: pH 7.5, raw SPR data
Procedure: (§1) Two commercially available functionalized phenylboronic acids (Frontier Scientific, Logan Utah) were screened to compare the effect of electron withdrawing substituents (2,5-difluorophenylboronic acid, 1, FIG. 3a), versus a ortho-hydroxymethyl substituent (2-hydroxymethylphenylboronic acid, 2, FIG. 3a) prepared at 50 mM concentrations in 25 mM buffers at the appropriate pH (pH 5.5 acetate buffer, pH 7.5 phosphate buffer, and pH 9.5 carbonate buffer). HIV-1 CN54 gp120 with a molecular weight of 130 kDa was obtained from the NIH AIDS Research and Reference Reagent Program (Division of AIDS, NIH). CN54 gp120 was attached to a CM4 sensor chip using standard amine coupling chemistry with a density of 10,000 RU. Briefly, using HBS-P as the running buffer, the carboxymethyl dextran surface of a surface Plasmon resonance (SPR) chip (CM4 chip, Biacore) was activated with an injection of a 1:1 ratio of 0.4M 1-ethyl-3-(3-dimethylaminopropyl)carbodiimide hydrochloride (EDC)/0.1M N-hydroxysuccinimide (NHS). CN54 gp120 in 10 mM sodium acetate (pH 5.5) was then coupled to the surface. The remaining activated groups were then blocked by an injection of 1M ethanolamine (pH 8.5).

HIV-1 CN54 gp120 = assay: Surface plasmon resonance screening of phenylboronic acid ligands with HIV gp120; type: binding; details: SPR, 25° C., 1:1 interaction model, pH 5.5 / 7.5 / 9.5 buffers
Procedure: Two commercially available functionalized phenylboronic acids (Frontier Scientific, Logan Utah) were screened to compare the effect of electron withdrawing substituents (2,5-difluorophenylboronic acid, 1, FIG. 3a), versus a ortho-hydroxymethyl substituent (2-hydroxymethylphenylboronic acid, 2, FIG. 3a) prepared at 50 mM concentrations in 25 mM buffers at the appropriate pH (pH 5.5 acetate buffer, pH 7.5 phosphate buffer, and pH 9.5 carbonate buffer). HIV-1 CN54 gp120 with a molecular weight of 130 kDa was obtained from the NIH AIDS Research and Reference Reagent Program (Division of AIDS, NIH). CN54 gp120 was attached to a CM4 sensor chip using standard amine coupling chemistry with a density of 10,000 RU. […] Affinity for the gp120 functionalized surface was determined by comparing raw data to three reference cells: two of the unactivated CM4 surfaces, and an activated CM4 surface capped completely by ethanolamine. […] The association and dissociation phases were monitored for 1-3 min and 3-10 min respectively. Data was fitted to a 1:1 interaction model and the apparent affinity, KD, was determined using Scrubber II software. […]
Binding affinities in the presence of the seminal component fructose were also analyzed. […]

[2] = Solubility of ligand in buffer for SPR; type: physicochemical; details: pH 5.5
Procedure: as §1

binding to nonfunctionalized dextran surface [1] | SMILES | apparent affinity, KD, to gp120 functionalized surface (HIV-1 CN54 gp120) | solubility [2]
no binding | OB(O)c1cc(F)ccc1F [compound 1, 2,5-difluorophenylboronic acid] |  | 
 | OCc1ccccc1B(O)O [compound 2, 2-hydroxymethylphenylboronic acid] | slightly higher affinity compared to the more acidic 1 | not soluble
